According to patent publication US10285969B2, “Mangiferin-6-O-berberine salt and preparation method and use thereof” (CHANGZHOU DEZE MEDICAL SCIENCE CO., LTD, priority 2015, dated 2019):

Assays:
[1] = Physical and chemical properties: solubility in solvents; format: physicochemical
Description: The chemical structure of the mangiferin-6-O-berberine salt is as follows: […]

[2] = Solubility in the hydrochloric acid solution of pH 1; format: physicochemical
Experimental: (§1) Sample A: Mangiferin-6-O-berberine salt dihydrate
(§2) Sample B: Mangiferin-berberine salt yielded using the method as disclosed in WO2010/145192A1.
2. Instrument: PHS-3C pH meter (Shanghai Kangyi)
Take pure water; add hydrochloric acid to adjust pH to 1 (25° C.±2° C.). Take the water 50 ml to different triangular flask; weigh up accurately 200 mg sample A and sample B which have been ground into powders and put them into the triangular flasks separately, shake and observe dissolved phenomena.
Take the water 50 ml to different triangular flasks; weigh up accurately sample A 400 mg and 600 mg which have been ground into powders and put the powders into the triangular flasks separately, shake and observe dissolving phenomena.

[3] = Stability under a high-humidity environment (moisture absorption weight gain); format: physicochemical
Experimental: as §1, §2
2. Instrument: One ten-thousandth electronic balance (Sartorius, Germany)
Weigh up accurately appropriate amount sample A in 3 glass gardens and sample B in 3 glass gardens separately; put the samples in a drug stability chamber with the condition being set to: 25° C./90% RH±5% RH and storage for 10 days. Weigh the samples accurately on the fifth day and tenth day; record the results of weighing and calculate weight percentage of moisture absorption.

AMPK = test: Activation of AMPK in L6 cells (Western blot of phospho-AMPK and phospho-ACC); format: cell-based, rat; conditions: 1.25-5 μmol/L, 3 hours, dose-dependent
Experimental: The mangiferin-6-O-berberine salt dihydrate yielded using the method as disclosed in the above examples dissolves in DMSO. Before use, the mangiferin-6-O-berberine salt dihydrate is diluted by a culture medium or HBS. The ultimate concentration of DMSO is no more than 0.2%.
The rat L6 cell line is purchased from the ATCC. HG-DMEM is purchased GIBCO™. Fetal bovine serum (FBS) is purchased from Hyclone. Anti-AMPK, anti-ACC, antiphospho-AMPK (Thr172), antiphospho-ACC (ser79) polyclonal antibodies are purchased from Cell Signal Technology.
L6 cells were grown in HG-DMEM containing 10% (v/v) FBS, 100 U/ml penicillin and 100 U/ml streptomycin in a humidified atmosphere of 5% CO2 at 37° C. When the cells covered 60%, the medium was switched to HG-DMEM with 2% FBS and the culture medium was replaced every two days until the cells differentiation reached 90%.
Cells in 6-well plates were starved in serum-free HG-DMEM, and then different concentration gradient samples were added into serum-free HG-DMEM; the concentration of DMSO is 0.2%. The samples incubated for 3 hours in the cells. […]
Samples were electrophoresed on 10% SDS-polyacrylamide gels, and transferred to […] membranes under 100V and 1-2 hours in the transmembrane instrument. Protein in the gel was transferred to nitrocellulose membrane under the state of half dry, and the band was determined by Ponceau S (Ponceau S). […]

[4] = test system: non-alcoholic fatty liver combined with type 2 diabetes mellitus; test: Improvement of metabolic disorder indices in patients, oral tablets for six months; format: in vivo, human; conditions: after six months, tablets 75 mg two times per day oral
Experimental: The patients according to the criteria of diagnosing non-alcoholic fatty liver combined with type 2 diabetes mellitus oral administrated mangiferin-6-O-berberine salt tablets 75 mg (for the preparation method, reference may be made to Example 6) two times per day.

[5] = Pharmacokinetic comparison after single intragastric administration to SD rats; format: in vivo
Experimental: as §1
Sample B: Mangiferin-berberine salt yielded using the method disclosed in WO2010/145192A1.
A single intragastric administration of sample of A or B was given to SD rats at the dosage of 100 mg/kg and blood was sampled from jugular vein at 0, 0.083, 0.25, 0.5, 1, 1.5, 2, 3, 4, 5, 6, 7, 8, 12 and 24 h.
Preparation of the mangiferin reference solution: Mangiferin reference was weighed accurately and put into a 25 ml volumetric flask; methanol was added to make mangiferin dissolve, diluted to graduation. The mangiferin reference mother liquor is yielded for reserve. An appropriate amount of mangiferin reference mother liquor was taken out accurately and diluted to prepare the mangiferin reference solutions having a concentration of 2, 5, 10, 50, 100, 200 ng/ml.
Preparation of the berberine hydrochloride reference solution: The berberine hydrochloride reference was weighed accurately and put into a 25 ml volumetric flask; methanol was added to make the berberine hydrochloride dissolve, and dilute to graduation. The berberine hydrochloride reference mother liquor was yielded for reserve. An appropriate amount of berberine hydrochloride reference mother liquor was taken out accurately and diluted to prepare reference solution whose berberine concentration is 0.2, 0.5, 2, 10, 20, 50 ng/ml.
Preparation of the internal standard solution: Glibenclamide was weighed accurately and put into a 25 ml volumetric flask; acetonitrile was added to make glibenclamide dissolve, and dilute to graduation. The internal standard solution of glibenclamide was yielded, having a concentration of 50 ng/ml.
Blood sample processing method: Rat blood was put in a heparin anticoagulant centrifuge tube and centrifuged for 10 minutes at 6000 rpm, and the plasma was taken for reserve at −20° C. […]
The pharmacokinetic parameters are calculated with a non compartmental model in Pharsight Phoenix 6.3.

[6] = hydrochloric acid solution of pH 1
[7] = single intragastric 100 mg/kg, 0-24 h, n = 3, mean ± SD

COc1ccc2cc3[n+](cc2c1OC)CCc1cc2c(cc1-3)OCO2.O=c1c2cc(O)c([O-])cc2oc2cc(O)c([C@@H]3O[C@H](CO)[C@@H](O)[C@H](O)[C@H]3O)c(O)c12 [Mangiferin-6-O-berberine salt]
solubility in dilute hydrochloric acid ([1]; dilute hydrochloric acid): slightly soluble
solubility in methanol ([1]; methanol): slightly soluble
solubility in water ([1]; water): almost insoluble
solubility relative to the mangiferin-berberine salt disclosed in WO2010/145192A1 [2, 6]: three times
stability (of the solution) compared with the mangiferin-berberine salt disclosed in WO2010/145192A1 [2, 6]: much better
solubility in the hydrochloric acid solution of pH 1 ([2]; pH 1, 25° C.±2° C.): 12 mg/ml
weight percentage of moisture absorption (hygroscopicity) compared with the mangiferin-berberine salt disclosed in WO2010/145192A1 [3]: much smaller
phosphorylation of ACC (AMPK): enhances significantly
phosphorylation of AMPK (AMPK): enhances significantly
ALT ([4]; n = 8, mean ± SD, base line 136.50): 51.85 U/L
APRI index ([4]; n = 8, base line 0.447): 0.203
Urine microalbumin (1^+ is seen as 1) ([4]; n = 8, base line 0.60): 0
TG ([4]; n = 8, base line 3.56): 1.41 mmol/L
Atherogenic index (AI) ([4]; n = 8, base line 4.12): 3.10
HbA1C ([4]; n = 8, base line 7.18): 5.80%
Weight ([4]; n = 8, base line 73.35): 62.34 kg
AST ([4]; n = 8, base line 83.32): 39.20 U/L
Diastolic pressure ([4]; n = 8, base line 94.79): 76.39 mmHg
Systolic pressure ([4]; n = 8, base line 153.77): 125.86 mmHg
INS ([4]; n = 8, base line 197.99): 56.08 pmol/L
Liver color Doppler ultrasound ([4]; n = 8, base line fatty liver): normal
ISI ([4]; n = 8, base line −7.12): −5.80
AUC relative to that of the mangiferin-berberine salt ([5]; oral administration 100 mg/kg): 2 times
AUC0-t of Berberine in plasma [5, 7]: 669.72 ± 312.83 ng·h/mL
AUC0-t of Mangiferin in plasma [5, 7]: 1831.11 ± 510.25 ng·h/mL
